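In this assay, cells in 96-well plates receive the compound at five concentrations for 48 hours. Endpoints are linearly interpolated between the surrounding concentrations. The concentration for 50% growth inhibition is given as GI50. Definition used: TGI = concentration required for complete inhibition of growth.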
Assays:
Test in all cases: inhibition of tumour cell growth, NCI panel, 48 h
ACHN renal = test system: ACHN renal
NCI-H522 lung = test system: NCI-H522 lung
KM12 colon = test system: KM12 colon
HL-60(TB) leukemia = test system: HL-60(TB) leukemia
HT29 colon = test system: HT29 colon
SNB-19 CNS = test system: SNB-19 CNS
MDA-MB-231 breast = test system: MDA-MB-231 breast
HCC-2998 colon = test system: HCC-2998 colon
EKVX NSCLC = test system: EKVX NSCLC
SK-MEL-5 melanoma = test system: SK-MEL-5 melanoma
SF-539 CNS = test system: SF-539 CNS
SK-OV-3 ovarian = test system: SK-OV-3 ovarian
A549 NSCLC = test system: A549 NSCLC
OVCAR-5 ovarian = test system: OVCAR-5 ovarian
NCI/ADR-RES ovarian = test system: NCI/ADR-RES ovarian
SK-MEL-28 melanoma = test system: SK-MEL-28 melanoma
MDA-MB-435 = test system: MDA-MB-435
NCI-H23 lung = test system: NCI-H23 lung
SF-268 CNS = test system: SF-268 CNS
OVCAR-8 ovarian = test system: OVCAR-8 ovarian
A498 renal = test system: A498 renal
SN12C renal = test system: SN12C renal
SW-620 colon = test system: SW-620 colon
NCI-H460 lung = test system: NCI-H460 lung
SK-MEL-2 melanoma = test system: SK-MEL-2 melanoma
CAKI-1 renal = test system: CAKI-1 renal
SNB-75 CNS = test system: SNB-75 CNS
DU-145 prostate = test system: DU-145 prostate
HOP-62 NSCLC = test system: HOP-62 NSCLC

For `O=C(CN1CCN(CCN2C(=O)c3cccc4cccc(c34)C2=O)CC1)Nc1ccc2ncsc2c1`, the TGI (ACHN renal) was 16.5 µM, the GI50 (NCI-H522 lung) was 3.96 µM and the TGI (NCI-H522 lung) was 18 µM. For the same compound, the GI50 (KM12 colon) was 6.16 µM, the TGI (KM12 colon) was 25.4 µM and the GI50 (HL-60(TB) leukemia) was 10.2 µM. It also gave a TGI (HL-60(TB) leukemia) of 27.5 µM, a GI50 (HT29 colon) of 3.61 µM and a TGI (HT29 colon) of 16.5 µM. The GI50 (SNB-19 CNS) was 4.5 µM, the TGI (SNB-19 CNS) was 21.7 µM and the GI50 (MDA-MB-231 breast) was > 100 µM. The TGI (MDA-MB-231 breast) was > 100 µM, the GI50 (HCC-2998 colon) was 5.84 µM and the TGI (HCC-2998 colon) was > 100 µM. The GI50 (EKVX NSCLC) was 9.79 µM, the TGI (EKVX NSCLC) was 39.2 µM and the GI50 (SK-MEL-5 melanoma) was 3.7 µM. For the same compound, the TGI (SK-MEL-5 melanoma) was 16 µM, the GI50 (SF-539 CNS) was 6.43 µM and the TGI (SF-539 CNS) was 20.5 µM. For the same compound, the GI50 (SK-OV-3 ovarian) was 8.35 µM, the TGI (SK-OV-3 ovarian) was 23.3 µM and the GI50 (A549 NSCLC) was 3.58 µM. The TGI (A549 NSCLC) was 15.4 µM, the GI50 (OVCAR-5 ovarian) was 10.5 µM and the TGI (OVCAR-5 ovarian) was > 100 µM. For the same compound, the GI50 (NCI/ADR-RES ovarian) was 6.2 µM, the TGI (NCI/ADR-RES ovarian) was 53.8 µM and the GI50 (SK-MEL-28 melanoma) was 11 µM. It also gave a TGI (SK-MEL-28 melanoma) of 23.8 µM, a GI50 (MDA-MB-435) of 5.52 µM and a TGI (MDA-MB-435) of 20.4 µM. It also gave a GI50 (NCI-H23 lung) of 7.08 µM, a TGI (NCI-H23 lung) of 27 µM and a GI50 (SF-268 CNS) of 6.07 µM. It also gave a TGI (SF-268 CNS) of 25 µM, a GI50 (OVCAR-8 ovarian) of 3.8 µM and a TGI (OVCAR-8 ovarian) of 22.9 µM. The GI50 (A498 renal) was 22.3 µM, the TGI (A498 renal) was > 100 µM and the GI50 (SN12C renal) was 5.5 µM. For the same compound, the TGI (SN12C renal) was 19.9 µM, the GI50 (SW-620 colon) was 3.19 µM and the TGI (SW-620 colon) was 19.3 µM. It also gave a GI50 (NCI-H460 lung) of 3.58 µM, a TGI (NCI-H460 lung) of 14.7 µM and a GI50 (SK-MEL-2 melanoma) of 6.49 µM. The TGI (SK-MEL-2 melanoma) was 23.6 µM, the GI50 (CAKI-1 renal) was 4.91 µM and the TGI (CAKI-1 renal) was > 100 µM. The GI50 (SNB-75 CNS) was 9.44 µM, the TGI (SNB-75 CNS) was > 100 µM and the GI50 (DU-145 prostate) was 5.92 µM. The TGI (DU-145 prostate) was 19.6 µM, the GI50 (HOP-62 NSCLC) was 5.69 µM and the TGI (HOP-62 NSCLC) was 23.4 µM.

Source: PubChem BioAssay (NCI)
